Source: US20090069418A1, “Compositions and Methods for the Treatment of Disorders Associated with Aberrant Vasodilation” (priority 2007, published 2009)

What was measured:
[1] = AUDA-BE and its metabolites measured in brain tissue; assay type: in vivo, mice
Excerpt: This concentration was also biologically effective in lowering blood pressure in hypertensive model (Imig et al. (2005) Hypertension 46:975-81). Therefore, in these experiments, the levels of sEH inhibitors in the blood are in the concentration range expected to inhibit the enzyme.

[2] = Pharmacokinetics of AUDA-BE and its metabolites in plasma after single intraperitoneal injection; assay type: in vivo, C57Bl/6 mice
Experimental: A second set of animals was injected with sesame oil alone (vehicle). […] (2002) Biochem. Pharmacol., 63:1599-608; Watanabe et al. (2006) Anal. Chim. Acta., 559:37-44). Briefly, blood samples (10 μL) were collected in 1.5 mL Eppendorf microcentrifuge tubes, weighed, and vortexed with 100 μL of purified water. […] Aliquots (10 μL) were analyzed by liquid chromatography coupled mass spectroscopy LC-MS/MS (Watanabe et al. (2006) Anal. Chim. Acta., 559:37-44; Watanabe and Hammock (2001) Anal. Biochem., 299:227-34). The concentration of sEH inhibitors were quantified in extracts using HPLC with positive mode electrospray ionization and tandem mass spectrometry. Analytes were quantified on a 5-point curve with internal standard methods. Surrogate recoveries were evaluated by quantification against the internal standard. Surrogate recoveries were 70% for all reported plasma samples, the analysis of reagent blanks, matrix spikes, and analytical replicates were used to document method stability during this study. […] Differences in infarct size, enzyme activity, and blood flow rates were analyzed with a t-test for two groups and analysis of variance with post hoc Newman-Keuls multiple range test for multiple groups. The pharmacokinetic profile was examined for goodness of fit to a noncompartmental or multicompartmental models. Pharmacokinetic parameters were then obtained by fitting the blood-concentration-time data to a non-compartmental model with the WinNonlin software (Pharsight, Mountain View, Calif., USA), as described previously (Watanabe et al. (2006) Anal. Chim. Acta., 559:37-44). The criterion for statistical significance was set at P<0.05. All values are reported as mean±s.e.m.

epoxide hydrolase = test: Hydrolase activity in brain tissue ex vivo, conversion of 14,15-EET to 14,15-DHET (ELISA); assay type: biochemical, mouse; conditions: both WT and KO brain tissue
Experimental: Total 14,15-DHET in blood was measured with a commercial ELISA (Detroit R&D, Inc, Detroit, Mich.) (Koerner et al. (2007) J. Neurosci., 27:4642-4649). Briefly, plasma lipids were extracted 3 times with ethyl acetate under acidic conditions (pH 3 to 4), followed by saponification with 20% KOH. Samples were dried and resuspended in methanol, and 14,15-DHET concentration was measured according to the manufacturer's instructions. The ELISA was also used to measure hydrolase activity in brain tissue (perfused to remove blood) incubated with 1 μM 14,15-EET for 30 minutes. Brian tissue was homogenized in 4 volumes of ice-cold buffer (20 mmol/L Tris HCL pH 7.4, 0.32 mol/L sucrose, 1 mmol/L EDTA), centrifuged at 1000 g for 10 minutes, and supernatant was further centrifuged at 10,000 g for 20 minutes.

- levels detected in homogenates of brain tissue ([1]; after AUDA-BE injection, methanol/chloroform extraction): not
- maximum concentration in plasma ([2]; AUDA-BE 40 mg/kg intraperitoneal, within the first hour): 2 µmol/L
- metabolism of 14,15-EET to 14,15-DHET in brain tissue (epoxide hydrolase): inhibited
Compound: CCCCOC(=O)CCCCCCCCCCCNC(=O)NC12CC3CC(CC(C3)C1)C2 [AUDA-BE, 12-(3-adamantane-1-yl-ureido)-dodecanoic acid butyl ester]
- crossing the blood brain barrier (BBB) ([1]; mouse, in vivo): capable of crossing the blood brain barrier
- adverse effects during the 24-hour period after drug administration ([2]; 10 or 40 mg/kg doses): No apparent adverse effects
- detection of parent drug in plasma ([2]; AUDA-BE 10 mg/kg intraperitoneal): only the metabolites AUDA and AUBA were detected
